What was measured:
[1] = system: HLA-B*0702 transgenic mice; test: Vaccination of HLA-B*0702 transgenic mice; specific CTLs detected by cytotoxicity or IFNγ ELISPOT; type: in vivo, mouse; settings: for cross recognition of the native peptide by CTLs induced by the optimized peptide in mice (in words): HLA-B*0702 transgenic mice, target cells loaded with native peptide; for Immunogenicity against optimized peptide (responding mice/vaccinated mice) / Immunogenicity against native peptide (responding mice/vaccinated mice): mice vaccinated twice with the optimized peptide; for Immunogenicity against optimized peptide (responding mice/vaccinated mice): cytotoxicity or IFNγ ELISPOT against target cells loaded with the optimized peptide; for Immunogenicity against native peptide (responding mice/vaccinated mice): target cells loaded with the corresponding native peptide; for immunogenicity in HLA-B*0702 transgenic mice (in words): specific CTL induction after vaccination, cytotoxicity (ratio 30/1) or IFNγ ELISpot
Method: The HLA-B7 H-2 class-I knockout mice were previously described.
Mice were injected subcutaneously with 100 μg of peptide emulsified in Incomplete Freund's Adjuvant (IFA) in the presence of 150 μg of the I-A^b restricted HBVcore128 T helper epitope ([…]) twice at two weeks interval.
A particular protocol was applied for MAGE-A 274L9, with two injections of this peptide at two weeks interval and 15 days later one injection with each one of the native peptide.
On day 6 of culture the bulk responder populations were tested for specific cytotoxicity. […] Percentage of specific lysis was determined as: % Lysis = (Experimental Release-Spontaneous Release) / (Maximal Release-Spontaneous Release) × 100. Spontaneous release is obtained using medium only, maximum release with HCl 0.1 M.
Seven days after the last vaccination, spleens were removed and T cells were isolated by Ficoll centrifugation and tested ex vivo for the recognition of 10 μM of either the native or optimized peptide. IFNγ producing T cells were quantified by ELISpot using the Diaclone Kit Murine IFNγ ELISpot (Besançon, France) according to manufacturer's recommendations. 250 000 spleen T cells were distributed per well and tested for the recognition of 10 μM of either the native or optimized peptide. Positive control was Concanavalin A and negative control was medium alone. All conditions were tested in sixplicates.

[2] = system: CD8+ T cells from healthy donors; test: In vitro induction of specific CTLs from PBMC of healthy HLA-B*0702 donors (IFNγ intracellular staining or ELISPOT); type: cell-based, human; settings: for immunogenicity in vitro in human PBMC (in words): CD8+ T cells from healthy donors, four stimulations with peptide loaded autologous DC; for Immunogenicity against optimized peptide (number of positive culture/number of total cultures): human healthy donor PBMC stimulated with optimized peptide loaded DC, T2-B7 cells loaded with optimized peptide; for Immunogenicity against native peptide (number of positive culture/number of total cultures): human healthy donor PBMC stimulated with optimized peptide, T2-B7 cells loaded with corresponding native peptide
Method: CD8+ T cells from healthy donors were in vitro stimulated with autologous dendritic cells loaded with each optimized cryptic peptide. After four stimulations, proliferating cells were tested for the presence of IFNγ producing CTLs upon stimulation with T2-B7 cells loaded with optimized or native peptides either by intracellular IFNγ staining or by IFNγ ELISPOT assay.
PBMC were collected by leukapheresis from healthy HLA-A*B702 volunteers. Dendritic cells (DC) were produced from adherent cells cultured with 500 IU/ml GM-CSF and 500 IU/ml IL-4, in complete synthetic medium (AIMV) for seven days. On day 7, DCs were pulsed with 10 μM of peptide during 2 hours and CD8^+ cells were purified by negative selection with CD8 Dynabeads Untouched Human CD8. CD8^+ cells (2 × 10^5) + CD8^− cells (6 × 10^4) were stimulated with 3 × 10^4 peptide-pulsed DC in AIMV medium supplemented with 1000 IU/ml IL-6 and 5 IU/ml IL-12 in round-bottomed 96-well plates.
From day 7, cultures were stimulated weekly with peptide-loaded DC in the presence of 20 IU/ml IL-2 and 10 ng/ml IL-7, 1 μg/ml anti-CD40 and 500 IU/ml IFNγ.
After the third stimulation, CD8 cells were maintained in AIMV supplemented with 20 IU/ml IL-2 during 7 days. Cultures were starved overnight with AIMV and then were tested in an intracellular IFNγ and an IFNγ ELISpot assay.
Stimulated T cells (10^5) from each pool were incubated with 2 × 10^5 T2 cells loaded with stimulating peptide in the presence of 20 μg/ml Brefeldin-A (Sigma, Oakville, Canada). Six hours later they were washed, stained with r-phycoerythrin-conjugated anti-CD8 antibody (Caltag Laboratories, Burlingame, CA, USA) in PBS for 25 min at 4°C, washed again, and fixed with 4% PFA. The cells were then permeabilized with PBS, 0.5% BSA, 0.2% saponin (Sigma, Oakville, Canada), and labelled with an allophycocyanin-conjugated anti-IFNγ mAb (PharMingen, Mississauga, Canada) for 25 min at 4°C before analysis with a FACSCalibur® flow cytometer.
Stimulated T cells were splited in four pools and IFNγ producing T cells was quantified in each pool by ELISpot using the Diaclone Kit Human IFNγ ELISpot (Besançon, France) according to manufacturer's recommendations. 250 000 cells were distributed per well and tested for the recognition of 10 μM of either the native or optimized peptide. Positive control was Concanavalin A and negative control was medium alone or an irrelevant peptide. All conditions were tested in sixplicates.

HLA-B*0702 = target: T1, HLA-B*0702 (Homo sapiens, UniProt P01889); test: Measurement of peptide relative affinity to HLA-B*0702 (surface expression on T2-B7 cells); type: cell-based
T1 construct: expressed in transfected cells; host or cells: human T2-B7 cells (T2 transfected with HLA-B*0702)
Method: The protocol used has been described previously. Briefly, T2-B7 cells were incubated at 37°C for 16 hours with peptides concentrations ranging from 100 μM to 0.1 μM (100 μM, 10 μM, 1 μM and 0.1μM), and then stained with ME-1 monoclonal antibody (mAb) to quantify the surface expression of HLA-B*0702. For each peptide concentration, the HLA-B*0702 specific staining was calculated as the percentage of staining obtained with 100 μM of the reference peptide CMV265–274 (R10V; […], SEQ ID NO: 9). The relative affinity (RA) was determined as: RA = (Concentration of each peptide that induces 20% of HLA-B*0702-expression/Concentration of the reference R10V peptide that induces 20% of HLA-B*0702 expression). In case of non-binders peptide, RA is not evaluable since the 20% of HLA-B*0702 expression is not reach even with the highest concentration of peptide.

Row | Sequence | cross recognition of the native peptide by CTLs induced by the optimized peptide in mice (in words) [1] | Immunogenicity against optimized peptide (responding mice/vaccinated mice) [1] | Immunogenicity against native peptide (responding mice/vaccinated mice) [1] | immunogenicity in HLA-B*0702 transgenic mice (in words) [1] | immunogenicity in vitro in human PBMC (in words) [2] | Immunogenicity against optimized peptide (number of positive culture/number of total cultures) [2] | Immunogenicity against native peptide (number of positive culture/number of total cultures) [2] | RA (Relative Affinity) (HLA-B*0702; 37°C 16 hours, peptide 100 μM to 0.1 μM, ME-1 mAb staining, RA = concentration inducing 20% of HLA-B*0702 expression / that of reference R10V, mean ± SD, at least three experiments, ≥ 10 = 10 or not measurable, SD) | binding to / affinity for HLA-B*0702 (in words) (HLA-B*0702; relative to reference peptide R10V) | (Number of spots – background)/10^6 cells ([1]; IFNγ ELISpot, Figure 3, value printed in the picture, mouse vaccinated twice at two weeks interval, statistically significant (*)) | Immunogenicity against native peptide MAGE-A1_267 (responding mice/vaccinated mice) ([1]; mice vaccinated with optimized peptide, target cells loaded with MAGE-A1_267) | Immunogenicity against native peptide MAGE-A2_274 (responding mice/vaccinated mice) ([1]; mice vaccinated with optimized peptide, target cells loaded with MAGE-A2_274) | Immunogenicity against native peptide MAGE-A3_274 (responding mice/vaccinated mice) ([1]; mice vaccinated with optimized peptide, target cells loaded with MAGE-A3_274) | cross recognition of native peptide by human CTLs induced by the optimized peptide (in words) ([2]; T2-B7 cells loaded with optimized or native peptides, IFNγ staining or ELISPOT) | Immunogenicity against native peptide MAGE-A1_269 (positive culture/total cultures) ([2]; human PBMC stimulated with optimized peptide, targets loaded with MAGE-A1_269 as printed) | Immunogenicity against native peptide MAGE-A2_274 (positive culture/total cultures) ([2]; human PBMC stimulated with optimized peptide, targets loaded with MAGE-A2_274) | Immunogenicity against native peptide MAGE-A3_274 (positive culture/total cultures) ([2]; human PBMC stimulated with optimized peptide, targets loaded with MAGE-A3_274)
1 | APKHSDCLA [HER2/neu246A1, optimized Her2/neu246 modified at position 1 by an alanine] | able to recognize target cells loaded with their corresponding native peptide | 8/12 | 5/12 | immunogenic | confirmed | 2/4 | 1/4 |  |  |  |  |  |  |  |  |  | 
2 | APRRLVQLL [TERT444A1, optimized TERT444, alanine at position 1] |  |  |  |  | confirmed | 1/2 | 2/2 | 1.4 ± 0.83 | high HLA-B*0702 affinity |  |  |  |  |  |  |  | 
3 | GPRALVETL [MAGE-A274 L9, optimized peptide derived from MAGE-A3_274, leucine at position 9] | able to recognize target cells loaded with MAGE-A3_274 but also MAGE-A1_267 and MAGE-A2_274 | 18/18 |  | immunogenic | confirmed | 2/4 |  |  |  | 3023 /10^6 cells | 3/8 | 3/5 | 4/5 | cross recognition of MAGE-A3_274 and MAGE-A2_274 was confirmed but not for MAGE-A1_267 | 0/4 | 2/4 | 2/4
4 | SPRLQLSNL [CEA188L9, optimized CEA188 modified at last position by a leucine] | able to recognize target cells loaded with their corresponding native peptide | 6/6 | 6/6 | immunogenic | confirmed | 1/3 | 2/3 |  |  |  |  |  |  |  |  |  | 

Source: publication PMC5312321, “A general strategy to optimize immunogenicity of HLA-B*0702 restricted cryptic peptides from tumor associated antigens: Design of universal neo-antigen like tumor vaccines for HLA-B*0702 positive patients” (Oncotarget, 2016)
